Data published in US10760087B2, “Compositions, methods, and plant genes for the improved production of fermentable sugars for biofuel production” (priority 2012, dated 2020).
Like-named read-outs stand apart in the source and are kept apart here.

Assays:
Assay type in all cases: in vivo
[1] = tested on: Arabidopsis wild-type and CesA1/CesA3/CesA6 mutant alleles; assay: Root length of Arabidopsis wild-type and CESA mutant lines on cellulose biosynthetic inhibitors (CBI resistance); conditions: Arabidopsis thaliana
Protocol: Further genetic screens aimed at identifying resistance to cellulose biosynthetic inhibitors (CBIs) were also conducted. The aim of conducting resistance screens can be to identify potential inhibitor targets. In the case of some CBIs, like isoxaben, resistance screens have been carried out using high concentrations of the inhibitor with the aim of identifying the target protein. Indeed, high resistance to isoxaben is only possible if certain CELLULOSE SYNTHASE (CESA) genes are altered by mutation. An unforeseen consequence of some of the resistance alleles has been to reduce overall cellulose crystallinity, which ultimately leads to overall improved saccharification of starting cell wall material. With this information as a starting point, the inventors sought to identify novel CESA alleles by conducting additional resistance screens, but utilizing much lower CBI concentrations than in the original screens.
EMS mutagenized plants (M2) were screened on 20 nM of two different CBIs, isoxaben or flupoxam. […] In total, 2 million M2 seeds were screened and 12 new CESA alleles were isolated, 3 in CESA1, 8 in CESA3 and 1 in CESA6. All of the new mutant alleles led to single amino acid substitutions, which could not have been predicted a priori.

[2] = tested on: wild type Arabidopsis seedlings; assay: Sugar release by 0.2 M H2SO4 acid hydrolysis of NPA-treated Arabidopsis seedlings; conditions: wild type (Col-0) 28 day-old seedlings on MS media with 1 or 5 μM NPA
Excerpt: FIGS. 4A-4D illustrate the analysis of pin-shaped inflorescence mutants and NPA treatment, resulting in increased saccharification in Arabidopsis and maize. […] (Results are averages ±s.d. (n=4). *, P<0.001 and **, P<0.005 using Student's t-test; all experiments were repeated two times with similar results.)
(§1) The connection between auxin transport and increased sugar release was further probed using a specific inhibitor of auxin transport N-1-naphthylphthalamic acid (NPA). […] More importantly, the ability to chemically perturb auxin transport allowed the expansion of the analysis to Zea mays (maize). […] Moreover, it appears that genes and processes identified using Arabidopsis can be transferred to maize and potentially other monocot species dedicated to biofuel production.
The M2 generation of EMS-mutagenized Arabidopsis (Col-0) seeds were chilled for 4 days and sowed onto 0.5× MS plates placed vertically under continuous light conditions at room temperature. […] The samples were incubated at 100° C. for 5 minutes, cooled and the absorbance was read at 660 nm. Approximately 22,000 seedlings from 32 pools were screened from which 63 wall hydrolysis sensitive (whs) mutants were identified as having an absorbance reading greater than 2 standard deviations from wild type (FIG. 5). whs mutants were retested in the M3 generation.

Zea mays (maize) = assay: Sugar release by 0.2 M H2SO4 acid hydrolysis of NPA-treated maize; conditions: two maize cultivars, 120 μM NPA for 2 weeks
Excerpt: (Results are averages ±s.d. (n=6-9).)
as §1
Polar auxin transport inhibition was carried out as described by Wu & McSteen, 2007. The two maize cultivars, Syngenta hybrid N39-Q1 and Tuxedo Sweet Corn, were grown in a greenhouse at 24° C. with a 12 hour day/night cycle. The plants were grown four weeks before NPA treatment followed by a two week watering regime using 120 μM NPA (ChemService, West Chester, Pa., USA) or DMSO alone (solvent) applied every two days in a volume of 150 mL for each pot. Plants were fertilized once a week with 20-20-20 fertilizer. After 2 weeks of treatment, whole plants were collected and de-stained in chloroform:methanol (1:1 v/v). Acid hydrolysis was performed as described previously.

NC(=O)c1nc(-c2ccccc2)n(-c2ccc(Cl)c(COCC(F)(F)C(F)(F)F)c2)n1 [Flupoxam, flupoxam]
IC50 ([1]; read-out: Concentration at which root length is 50% of wt, allele fpx 1-1, Col-o, CesA3 S(1040)L): 500 nM | IC50 ([1]; read-out: Concentration at which root length is 50% of wt, allele fpx 1-2, Ler, CesA3 S(1037)F): > 1000 nM | IC50 ([1]; read-out: Concentration at which root length is 50% of wt, allele fpx 1-3, Ler, CesA3 S(983)F): 100 nM | IC50 ([1]; read-out: Concentration at which root length is 50% of wt, allele fpx2-1, Ler, CesA1 G(1013)R): > 1000 nM | IC50 ([1]; read-out: Concentration at which root length is 50% of wt, allele fpx 2-2, Ler, CesA1 P(1010)L): 100 to 500 nM | IC50 ([1]; read-out: Concentration at which root length is 50% of wt, allele fpx 2-3, Ler, CesA1 G(1009)D): 1000 nM

CCC(C)(CC)c1cc(NC(=O)c2c(OC)cccc2OC)on1 [Isoxaben, isoxaben]
IC50 ([1]; read-out: Concentration at which root length is 50% of wt, allele ixr1-1 (published), Col-0, CesA3 G(998)D): > 1000 nM | IC50 ([1]; read-out: Concentration at which root length is 50% of wt, allele ixr1-2 (published), Col-0, CesA3 T(942)I): 500 nM | IC50 ([1]; read-out: Concentration at which root length is 50% of wt, allele ixr1-3, Ler, CesA3 G(998)S): 100 nM | IC50 ([1]; read-out: Concentration at which root length is 50% of wt, allele ixr1-4, Ler, CesA3 R(806)K): 50 nM | IC50 ([1]; read-out: Concentration at which root length is 50% of wt, allele ixr1-5, Ler, CesA3 L(797)F): 10 nM | IC50 ([1]; read-out: Concentration at which root length is 50% of wt, allele ixr1-6, Ler, CesA3 S(377)F): 50 nM | IC50 ([1]; read-out: Concentration at which root length is 50% of wt, allele ixr1-7, Ler, CesA3 R(276)H): 50 nM | IC50 ([1]; read-out: Concentration at which root length is 50% of wt, allele ixr 2-1 (published), Col-0, CesA6 R(1064)W): 50 nM | IC50 ([1]; read-out: Concentration at which root length is 50% of wt, allele ixr 2-2, Ler, CesA6 S(1002)F): 10 nM

O=C(O)c1ccccc1C(=O)Nc1cccc2ccccc12 [NPA, N-1-naphthylphthalamic acid]
increase in the release of sugars relative to untreated plants [2]: 1.5 to 2 fold | cell wall accessibility (sugar release) (Zea mays (maize)): significant increase in cell wall accessibility
